The subject of data set [1] is HaCaT keratinocyte cell line. Nature of the data set: Keratinocyte growth, sulforhodamine B (SRB) colorimetric assay. In kind it is cell-based. The settings on record: 50 µM, 72 hours, serum-free medium, SRB absorbance at 560 nm, FIG. 2B. The protocol: To analyze growth factor-like efficacy and inhibitory efficacy of the compounds synthesized in Example <1-2>, a sulforhodamine B (SRB Sigma) colorimetric assay was performed using a HaCaT keratinocyte cell line (Korean Cell Line Bank) in accordance with a method of Rizzino, et al. (Cancer Res. 48:4266(1988))
HaCaT keratinocyte cell line was seeded in a 96-well plate at a density of 3,000 cells per well, and then cultured in Dulbecco's modified Eagle's medium (DMEM, Gibco, USA) containing 10% fetal bovine serum (FBS, Sigma) for 24 hours under conditions of 37°C and 5% CO2. The cultured cell line was detached from the bottom of the culture plate using a 1% trypsin solution, and only cell precipitate was collected by centrifugation. The cell precipitate was suspended in DMEM without FBS, and then cultured for 24 hours under conditions of 37°C and 5% CO2. 24 hours later, the medium was replaced by the same medium from which serum was completely removed. A blank sample in which the cell precipitate was dissolved sterile in 10% DMSO was prepared for standardization. Each of the compound 1 to the compound 4 (50 µM) of the present disclosure, salicylic acid (50 µM), and EGF (100 nM) as a positive control were treated. Incubation was carried out under the same conditions as above for 72 hours. […] Absorbance at UV 560 nm was measured to determine cell viability.
A general note: The SRB assay estimates cell density from bound dye.

In data set [2] the test system is TNF-a, IL-6, IL-1b, and COX-2. Nature of the data set: Anti-inflammatory effect, Propionibacterium acnes-induced inflammatory cytokine mRNA expression in keratinocytes (RT-PCR). In kind it is cell-based. The settings on record: keratinocyte, 50 µg/ml Propionibacterium acnes, 50 µM compound, 24 hours; FIG. 8. The procedure:
Anti-inflammatory effects of the compounds of the present disclosure were examined using Propionibacterium acnes. To this end, keratinocyte was seeded in a 6-well plate at a density of 300,000 cells per well, and then incubated in a DMEM culture medium (Gibco, USA) containing 10% FBS for 24 hours under conditions of 37°C and 5% CO2. After replacing the medium by a fresh medium, the cells were treated with 50 µg/ml of Propionibacterium acnes, and then the treated Propionibacterium acnes was treated with each 50 µM of the compound 1 and the compound 3 of the present disclosure and salicylic acid used as the positive control, followed by incubation for 24 hours under the same conditions as above. RNA was isolated from the cells, and cDNA was synthesized using a cDNA synthesis kit (Intron, Korea). PCR premix (Intron, Korea) and primers for each of TNF-a, IL-6, IL-1b, and COX-2 in Table 3 below were used to perform PCR. mRNA levels of TNF-a, IL-6, IL-1b and COX-2 were determined by 5% agarose gel electrophoresis.

The conditions of data set [3]: distilled water, concentration of 10 mg/ml; FIG. 1.

Consider `O=C(O)c1ccccc1O` [salicylic acid, 2-hydroxybenzoic acid], for which the growth of keratinocytes result in data set [1] was “inhibited growth of keratinocytes due to toxicity”. For the same molecule, the “expression of inflammatory cytokines induced by Propionibacterium acnes” value in data set [2] was “hardly inhibited expression”. Besides, in data set [3], the solubility in water entry is recorded as “hardly dissolved in water”.

(Values after patent EP4803159A2, “CONJUGATE OF SALICYLIC ACID AND PEPTIDE” (Caregen Co., Ltd., priority 2017, dated 2018).)
